Key:
K562 (leukemia) cells = assay: anti-proliferative assay (MTT, 48 h); type: cell-based, human; conditions: K562, 0.01 to 100 μM
Protocol: (§1) Example 6 was carried out to determine the biological activity of the following samples: (S)-perillyl alcohol, (S)-AP, (R)-AP, (S)-NAP, and (R)-NAP on human tumor lineages. (S)-perillyl alcohol was tested in combination with the samples of sodium acids and salts, because it is a substance which is considered to have some established clinical efficacy.
(§2) Samples (R)-AP, (S)-AP, (R)-NAP, (S)-NAP and perillyl alcohol (POH) were received and solubilized in DMSO or saline solution (NaCl 0.9%) and conserved at −20° C. until the day of the experiment, when they were immediately diluted before use, in a cell culture medium, DMEM, enriched with 10% fetal bovine serum, […] penicillin, and 0.1 mg/ml streptomycin, and 0.05 mg/ml gentamicin (DMEM complete medium). The experiments were carried out according to the Standard Operational Procedure of the Laboratory of Molecular Pharmacology FARMO1003 version 00, which are summarized below.
(§3) K562 (leukemia), LUCENA (multi-drug resistant leukemia), SKMEL28 (melanoma) and MCF7 (breast tumor) cells were cultivated on a DEM complete culture medium, and kept in log growth phase. Twenty-four hours before the treatment with the samples, 100 μl of the cell suspension (5×10^4 cells/ml) were added to wells of 96-well plates and kept in the oven at 5% CO2 atmosphere, at 37° C.
(§4) The treatment for each of the five samples was carried out in response dosage (0.01 to 100 μM; 5 spots), each concentration in triplicate.
(§5) After 48 hours, thiazolyl blue was added (MTT; SIGMA code M5655) and the plate was kept in the oven with CO2 for 4 hours. After the incubation time, the supernatant was aspirated and formazan crystals, formed by the cellular activity, were solubilized with isopropyl alcohol and, after full solubilization, the optical density determination was carried out in a microplate reader at 570 nm (VictorX5; Perkin Elmer USA).

SKMEL28 (melanoma) cells = assay: anti-proliferative assay (MTT, 48 h); type: cell-based, human; conditions: SKMEL, 0.01 to 100 μM
Protocol: as §1, §2, §3, §4, §5

[1] = test system: Lucena (multi-drug resistant leukemia) cells; assay: anti-proliferative assay (MTT, 48 h); type: cell-based, human; conditions: 0.01 to 100 μM
Protocol: as §1, §2, §3, §4, §5

[2] = test system: MCF7 (breast tumor) cells; assay: anti-proliferative assay (MTT, 48 h); type: cell-based, human; conditions: MCF7, 0.01 to 100 μM
Protocol: as §1, §2, §3, §4, §5

[3] = test system: human colon adenocarcinoma (Caco-2); assay: MTT viability test, (S)-NAP 24 h; type: cell-based; conditions: Caco-2, NAP dosage 1.5-5.0 mM
Protocol: (§6) The effect of (S)-NAP on the viability of human colon adenocarcinoma cells with increasing degrees of malignancy was first evaluated. Caco2, HT-29, HCT-116 and a normal control cell MDCK, a […] kidney cell. Proliferation assays
(§7) (i) Cell cultures: Lineages of human colon adenocarcinoma cells with decreasing malignancy levels, HCT 116, HT-29 and Caco-2, were used. As a control of the epithelial cell model, a normal cell line of drainage epithelium (IEC-6) was used. These cells were cultured according to the ATCC specifications and maintained in a DMEM medium in an oven, with 5% CO2, at 37° C. until reaching semiconfluence.
(§8) (ii) Treatments: Initially, concentrations of sodium perylate (1.0, 1.8, 2.6, 3.4, 4.2 and 5.0 mM) were tested to determine the IC50 of the drug. Monolayers of semiconfluent cells were serum-depleted for 24 hours before treatment with (S)-NAP and during the treatment for 24 h.
(§9) (iii) Viability test: The lineages were plated in 96-well flat-bottom plates with DMEM culture medium containing the different (S)-NAP concentrations described above. Cell incubation with (S)-NAP was conducted for 24 h, at 37° C., upon which, the plates were incubated for 2 h with MTT [3-(4,5-dimethylthiazol-2-yl)-2,5diphenyltetrazolium bromide] 2.5 mg/ml, at a final concentration of 250 μg/ml. The plates were centrifuged at 1200 RPM, at 4° C., for 5 minutes, poured to remove the supernatant, since the crystals had deposited inside the cells. Formazan crystals were dissolved into […] of DMSO and homogenized manually and through the device. Absorbances were determined at 538 nm in a plate reader (Spectra Max 190). Controls of 100% viability, with no drug addition, and of 0% viability using formaldehyde were carried out simultaneously with the experiment.

[4] = test system: human colon adenocarcinoma (HT-29); assay: MTT viability test, (S)-NAP 24 h; type: cell-based; conditions: HT-29, NAP dosage 1.5-5.0 mM, concentration limited by NAP solubility
Protocol: as §6, §7, §8, §9

[5] = test system: human colon adenocarcinoma (HCT-116); assay: MTT viability test, (S)-NAP 24 h; type: cell-based; conditions: HCT-116, NAP dosage 1.0-5.0 mM
Protocol: as §6, §7, §8, §9

[6] = solubility in an aqueous medium; type: physicochemical; conditions: relative to POH and PA

SMILES | inhibition (in words) (SKMEL28 (melanoma) cells) | inhibition (in words) [2] | further results
C=C(C)C1CC=C(C(=O)[O-])CC1.[Na+] (stereo in doubt) [(R)-NAP, sodium perylate] | no inhibition making IC50 calculation necessary | – | IC50 (K562 (leukemia) cells): 1.24 µM; IC50 [1]: 0.013 µM
C=C(C)[C@H]1CC=C(C(=O)O)CC1 [(R)-PA, perillic acid] | – | no inhibition making IC50 calculation necessary | –
C=C(C)[C@@H]1CC=C(C(=O)[O-])CC1.[Na+] [(S)-NAP, sodium perylate] | – | no inhibition making IC50 calculation necessary | Result (viability) [3]: Refractory; IC50 [4]: > 5000 µM; IC50 [5]: > 3400 µM
C=C(C)[C@@H]1CC=C(C(=O)O)CC1 [(S)-PA, perillic acid, reference compound] | no inhibition making IC50 calculation necessary | no inhibition making IC50 calculation necessary | –
C=C(C)C1CC=C(C(=O)[O-])CC1.[Na+] (stereo not drawn) [NAP, sodium perylate] | – | – | solubility in an aqueous medium compared with POH and PA [6]: higher
C=C(C)[C@@H]1CC=C(CO)CC1 [POH, perillyl alcohol] | – | no inhibition making IC50 calculation necessary | –

Source: US20170260121A1, “COMPOUND, PROCESS FOR PREPARING A COMPOUND, PHARMACEUTICAL COMPOSITION, USE OF A COMPOUND AND METHOD FOR TREATING CANCER” (FUNDAÇÃO OSWALDO CRUZ, priority 2014, published 2017)
